Measured values: patent US10118930B2, “Piperidinylpyrazolopyrimidinones and their use” (BAYER PHARMA AKTIENGESELLSCHAFT, priority 2015, dated 2018)
Where a name gives a salt, the structure may show the parent alone.

Each compound was assayed on clot lysis (fibrinolysis) in diluted human citrated plasma, tPA-induced (assay: Plasma-based clot lysis assay (5%)). Settings: human citrated platelet-poor plasma 5%, fibrinogen 3 μM, CaCl2 10 mM, tPA 0.2 nM, 37° C., OD at 405 nm.
Assay type: biochemical
Method in brief: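 Clot formation and breakdown triggered by CaCl2 (10 mM final) plus tPA (0.2 nM final) at 37° C, in 5% diluted human plasma supplemented with 3 μM fibrinogen (HEPES/NaCl/Brij buffer, pH 7). IC50 obtained from time courses relative to a blank control.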
For O=c1cc(C2CCNCC2)n2ncc(CN3CCS(=O)(=O)CC3)c2[nH]1 [Example 345, 3-[(1,1-dioxidothiomorpholin-4-yl)methyl]-7-(piperidin-4-yl)pyrazolo[1,5-a]pyrimidin-5 (4H)-one hydrochloride], the IC50 was 120 nM.
Cc1nn2c(C3CCNCC3)cc(=O)[nH]c2c1-c1nc(-c2ccccc2OC(F)(F)F)no1 [Example 347, 2-methyl-7-(piperidin-4-yl)-3-{3-[2-(trifluoromethoxy)phenyl]-1,2,4-oxadiazol-5-yl}pyrazolo[1,5-a]pyrimidin-5(4H)-one hydrochloride] gave an IC50 of 28 nM.
CC(C)(C)C[C@@H]1C[C@H](c2cc(=O)[nH]c3c(-c4nc(-c5ccccc5F)no4)cnn23)CCN1 [Example 349, 7-[(2S,4R)-2-(2,2-dimethylpropyl)piperidin-4-yl]-3-[3-(2-fluorophenyl)-1,2,4-oxadiazol-5-yl]pyrazolo[1,5-a]pyrimidin-5(4H)-one hydrochloride] showed an IC50 of 21 nM.
Cc1nn2c(C3CCNCC3)cc(=O)[nH]c2c1-c1nc(C2CCCCC2)no1 [Example 350, 3-(3-cyclohexyl-1,2,4-oxadiazol-5-yl)-2-methyl-7-(piperidin-4-yl)pyrazolo[1,5-a]pyrimidin-5(4H)-one hydrochloride] was tested, and the IC50 was 20 nM.
O=c1cc(C2CCNCC2)n2ncc(-c3nc(C(F)(F)F)cs3)c2[nH]1 [Example 351, 7-(piperidin-4-yl)-3-[4-(trifluoromethyl)-1,3-thiazol-2-yl]pyrazolo[1,5-a]pyrimidin-5 (4H)-one hydrochloride] showed an IC50 of 26 nM.
In the case of O=C(OCCCF)c1cnn2c(C3CCNCC3)cc(=O)[nH]c12 [Example 352, 3-fluoropropyl 5-oxo-7-(piperidin-4-yl)-4,5-dihydropyrazolo[1,5-a]pyrimidine-3-carboxylate hydrochloride], the IC50 is reported as 44 nM.
With O=C(OCC(F)F)c1cnn2c(C3CCNCC3)cc(=O)[nH]c12 [Example 353, 2,2-difluoroethyl 5-oxo-7-(piperidin-4-yl)-4,5-dihydropyrazolo[1,5-a]pyrimidine-3-carboxylate hydrochloride] the IC50 was 28 nM.
For O=C(OCC(F)(F)F)c1cnn2c(C3CCNCC3)cc(=O)[nH]c12 [Example 354, 2,2,2-trifluoroethyl 5-oxo-7-(piperidin-4-yl)-4,5-dihydropyrazolo[1,5-a]pyrimidine-3-carboxylate hydrochloride], the IC50 was 27 nM.
In the case of O=C(OCCC(F)(F)F)c1cnn2c(C3CCNCC3)cc(=O)[nH]c12 [Example 355, 3,3,3-trifluoropropyl 5-oxo-7-(piperidin-4-yl)-4,5-dihydropyrazolo[1,5-a]pyrimidine-3-carboxylate hydrochloride], the IC50 is reported as 27 nM.
For O=C(OC1CCC1)c1cnn2c(C3CCNCC3)cc(=O)[nH]c12 [Example 356, Cyclobutyl 5-oxo-7-(piperidin-4-yl)-4,5-dihydropyrazolo[1,5-a]pyrimidine-3-carboxylate hydrochloride], the IC50 was 23 nM.
For COC(=O)c1cnn2c(C3CCNCC3)cc(=O)[nH]c12 [Example 357, Methyl 5-oxo-7-(piperidin-4-yl)-4,5-dihydropyrazolo[1,5-a]pyrimidine-3-carboxylate hydrochloride], the IC50 was 14 nM.
For O=C(c1cnn2c(C3CCNCC3)cc(=O)[nH]c12)N1CCC12CCOCC2 [Example 359, 3-(7-oxa-1-azaspiro[3.5]non-1-ylcarbonyl)-7-(piperidin-4-yl)pyrazolo[1,5-a]pyrimidin-5(4H)-one trifluoroacetate], the IC50 was 120 nM.
For C[C@@H](c1ccccc1)N(C)C(=O)c1cnn2c(C3CCNCC3)cc(=O)[nH]c12 [Example 360, N-methyl-5-oxo-N-[(1S)-1-phenylethyl]-7-(piperidin-4-yl)-4,5-dihydropyrazolo[1,5-a]pyrimidine-3-carboxamide hydrochloride], the IC50 was 52 nM.
For CN(Cc1ccccn1)C(=O)c1cnn2c(C3CCNCC3)cc(=O)[nH]c12 [Example 361, N-methyl-5-oxo-7-(piperidin-4-yl)-N-(pyridin-2-ylmethyl)-4,5-dihydropyrazolo[1,5-a]pyrimidine-3-carboxamide hydrochloride], the IC50 was 32 nM.
In the case of CCCOC(=O)c1c(C)nn2c(C3CCNCC3)cc(=O)[nH]c12 [Example 365, Propyl 2-methyl-5-oxo-7-(piperidin-4-yl)-4,5-dihydropyrazolo[1,5-a]pyrimidine-3-carboxylate hydrochloride], the IC50 is reported as 38 nM.
Cc1nn2c(C3CCNCC3)cc(=O)[nH]c2c1C(=O)OC(C)C [Example 366, Propan-2-yl 2-methyl-5-oxo-7-(piperidin-4-yl)-4,5-dihydropyrazolo[1,5-a]pyrimidine-3-carboxylate hydrochloride] was tested, and the IC50 was 27 nM.
For Cc1nc(-c2ccc(C(F)(F)F)cc2)sc1-c1cnn2c(C3CCNCC3)cc(=O)[nH]c12 [Example 369, 3-{4-methyl-2-[4-(trifluoromethyl)phenyl]-1,3-thiazol-5-yl}-7-(piperidin-4-yl)pyrazolo[1,5-a]pyrimidin-5(4H)-one hydrochloride], the IC50 was 39 nM.
For CC(=O)c1cnn2c(C3CCNCC3)cc(=O)[nH]c12 [Example 370, 3-acetyl-7-(piperidin-4-yl)pyrazolo[1,5-a]pyrimidin-5(4H)-one hydrochloride], the IC50 was 36 nM.
Compound CCC(=O)c1cnn2c(C3CCNCC3)cc(=O)[nH]c12 [Example 371, 7-(piperidin-4-yl)-3-propanoylpyrazolo[1,5-a]pyrimidin-5(4H)-one hydrochloride] has an IC50 of 30 nM.
For O=c1cc(C2CCNCC2)n2ncc(-c3coc(-c4ccccc4)n3)c2[nH]1 [Example 372, 3-(2-phenyl-1,3-oxazol-4-yl)-7-(piperidin-4-yl)pyrazolo[1,5-a]pyrimidin-5(4H)-one hydrochloride], the IC50 was 22 nM.
N#Cc1c(Br)nn2c(C3CCNCC3)cc(=O)[nH]c12 [Example 374, 2-bromo-5-oxo-7-(piperidin-4-yl)-4,5-dihydropyrazolo[1,5-a]pyrimidine-3-carbonitrile hydrochloride] showed an IC50 of 34 nM.
In the case of Cn1nccc1-c1cnn2c(C3CCNCC3)cc(=O)[nH]c12 [Example 375, 3-(1-methyl-1H-pyrazol-5-yl)-7-(piperidin-4-yl)pyrazolo[1,5-a]pyrimidin-5(4H)-one hydrochloride], the IC50 is reported as 30 nM.
Compound CC(C)Cc1nc(-c2cnn3c(C4CCNCC4)cc(=O)[nH]c23)no1 [Example 378, 3-(5-Isobutyl-1,2,4-oxadiazol-3-yl)-7-(piperidin-4-yl)pyrazolo[1,5-a]pyrimidin-5(4H)-one hydrochloride] has an IC50 of 32 nM.
Work on CCCCCCc1nc(-c2cnn3c(C4CCNCC4)cc(=O)[nH]c23)no1 [Example 379, 3-(5-Hexyl-1,2,4-oxadiazol-3-yl)-7-(piperidin-4-yl)pyrazolo[1,5-a]pyrimidin-5(4H)-one hydrochloride] yielded an IC50 of 22 nM.
In the case of CC(C)=Cc1nc(-c2cnn3c(C4CCNCC4)cc(=O)[nH]c23)no1 [Example 383, 3-[5-(2-Methylprop-1-en-1-yl)-1,2,4-oxadiazol-3-yl]-7-(piperidin-4-yl)pyrazolo[1,5-a]pyrimidin-5 (4H)-one hydrochloride], the IC50 is reported as 15 nM.
O=c1cc(C2CCNCC2)n2ncc(-c3noc(C=C4CCCC4)n3)c2[nH]1 [Example 384, 3-[5-(Cyclopentylidenemethyl)-1,2,4-oxadiazol-3-yl]-7-(piperidin-4-yl)pyrazolo[1,5-a]pyrimidin-5 (4H)-one hydrochloride] showed an IC50 of 26 nM.
O=c1cc(C2CCNCC2)n2ncc(-c3noc(C4CCCC4)n3)c2[nH]1 [Example 385, 3-(5-Cyclopentyl-1,2,4-oxadiazol-3-yl)-7-(piperidin-4-yl)pyrazolo[1,5-a]pyrimidin-5(4H)-one hydrochloride] was tested, and the IC50 was 14 nM.
O=c1cc(C2CCNCC2)n2ncc(-c3noc(CC(F)(F)F)n3)c2[nH]1 [Example 388, 7-(Piperidin-4-yl)-3-[5-(2,2,2-trifluoroethyl)-1,2,4-oxadiazol-3-yl]pyrazolo[1,5-a]pyrimidin-5(4H)-one hydrochloride] was tested, and the IC50 was 30 nM.
With O=c1cc(C2CCNCC2)n2ncc(-c3noc(C4CC(F)(F)C4)n3)c2[nH]1 [Example 392, 3-(5-(3,3-difluorocyclobutyl)-1,2,4-oxadiazol-3-yl)-7-(piperidin-4-yl)pyrazolo[1,5-a]pyrimidin-5(4H)-one hydrochloride] the IC50 was 27 nM.
O=c1cc(C2CCNCC2)n2ncc(-c3noc(C4CCC(F)(F)CC4)n3)c2[nH]1 [Example 393, 3-(5-(4,4-difluorocyclohexyl)-1,2,4-oxadiazol-3-yl)-7-(piperidin-4-yl)pyrazolo[1,5-a]pyrimidin-5(4H)-one hydrochloride] gave an IC50 of 30 nM.
COCc1nc(-c2cnn3c(C4CCNCC4)cc(=O)[nH]c23)no1 [Example 394, 3-(5-(methoxymethyl)-1,2,4-oxadiazol-3-yl)-7-(piperidin-4-yl)pyrazolo[1,5-a]pyrimidin-5(4H)-one hydrochloride] gave an IC50 of 29 nM.
COCCCc1nc(-c2cnn3c(C4CCNCC4)cc(=O)[nH]c23)no1 [Example 395, 3-(5-(3-methoxypropyl)-1,2,4-oxadiazol-3-yl)-7-(piperidin-4-yl)pyrazolo[1,5-a]pyrimidin-5(4H)-one hydrochloride] was tested, and the IC50 was 27 nM.
In the case of Cc1nn2c(C3CCNCC3)cc(=O)[nH]c2c1C(=O)N1CCSCC1 [Example 397, 2-methyl-7-(piperidin-4-yl)-3-(thiomorpholin-4-ylcarbonyl)pyrazolo [1,5-a]pyrimidin-5(4H)-one hydrochloride], the IC50 is reported as 36 nM.
With COC[C@@H]1CCCN1C(=O)c1c(C)nn2c(C3CCNCC3)cc(=O)[nH]c12 [Example 398, 3-{[(2S)-2-(methoxymethyl)pyrrolidin-1-yl]carbonyl}-2-methyl-7-(piperidin-4-yl) pyrazolo[1,5-a] pyrimidin-5(4H)-one hydrochloride] the IC50 was 34 nM.
Cc1nn2c(C3CCNCC3)cc(=O)[nH]c2c1C(=O)N1CCCCC1 [Example 399, 2-methyl-7-(piperidin-4-yl)-3-(piperidin-1-ylcarbonyl) pyrazolo[1,5-a] pyrimidin-5(4H)-one hydrochloride] showed an IC50 of 42 nM.
